Values of other authors as cited in patent US20100197018A1, “USE OF SUBSTRATES AS PHARMACOLOGICAL CHAPERONES” (AMICUS THERAPEUTICS, INC., priority 2007, published 2010).
Read-outs that look alike come from different tables or passages of the source. Marks after values point to notes of the source that are not given here. Values belong to the compound of their own block, whether it stands above or below them.

Key:
heparan-N-sulfatase = biological target: T1, heparan-N-sulfatase (Homo sapiens, UniProt P51688); details: for Relative catalytic efficiency*: GlcNS = 1.00; for pH optimum of the enzyme for the substrate: purified enzyme
T1 sequence (P51688 21-502): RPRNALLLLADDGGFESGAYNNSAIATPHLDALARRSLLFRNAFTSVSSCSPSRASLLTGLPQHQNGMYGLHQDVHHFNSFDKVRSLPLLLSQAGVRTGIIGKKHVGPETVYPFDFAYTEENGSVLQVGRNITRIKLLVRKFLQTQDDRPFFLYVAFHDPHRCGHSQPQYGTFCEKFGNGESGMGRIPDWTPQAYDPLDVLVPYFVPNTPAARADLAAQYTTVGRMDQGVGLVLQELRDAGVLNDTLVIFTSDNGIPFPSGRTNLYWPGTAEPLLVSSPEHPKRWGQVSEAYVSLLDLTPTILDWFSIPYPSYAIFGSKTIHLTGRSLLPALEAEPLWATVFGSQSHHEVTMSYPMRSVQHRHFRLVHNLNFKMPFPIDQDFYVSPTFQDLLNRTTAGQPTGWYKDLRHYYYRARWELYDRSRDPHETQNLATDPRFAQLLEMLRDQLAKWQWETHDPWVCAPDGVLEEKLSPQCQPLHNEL

iduronate-2-sulfatase = biological target: T2, iduronate-2-sulfatase (Homo sapiens, UniProt P22304); details: for pH optimum: Table 4, cells marked * (not optimum pH) left out; for Relative catalytic efficiency: IdoA2S-anM = 1.0; for activity as % of maximal activity: at pH 6.3; for pH of maximal activity: text b65, highly sulfated tetrasaccharide substrates
T2 sequence (P22304 34-550): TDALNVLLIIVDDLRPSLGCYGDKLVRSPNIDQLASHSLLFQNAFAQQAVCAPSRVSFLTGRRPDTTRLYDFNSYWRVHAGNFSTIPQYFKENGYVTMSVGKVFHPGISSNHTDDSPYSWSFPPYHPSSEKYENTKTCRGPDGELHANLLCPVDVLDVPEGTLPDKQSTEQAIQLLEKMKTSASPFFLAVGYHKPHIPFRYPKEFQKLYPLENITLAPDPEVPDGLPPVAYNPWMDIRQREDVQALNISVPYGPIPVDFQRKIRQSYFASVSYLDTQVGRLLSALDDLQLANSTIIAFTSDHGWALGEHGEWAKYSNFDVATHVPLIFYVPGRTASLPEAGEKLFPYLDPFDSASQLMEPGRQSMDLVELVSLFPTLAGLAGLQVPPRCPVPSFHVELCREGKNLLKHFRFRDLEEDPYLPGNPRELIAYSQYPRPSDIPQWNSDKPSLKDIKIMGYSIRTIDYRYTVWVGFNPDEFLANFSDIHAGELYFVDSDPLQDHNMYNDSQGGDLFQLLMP

[1] = biological target: T3, N-acetyl-glucosamine-6-sulfate sulfatase (6S) Form A (Homo sapiens, UniProt P15586); details: for kcat. (turnover number) / Relative catalytic efficiency* / Km: Form A; for Relative catalytic efficiency*: kcat./Km calculated relative to a value for GlcNAc6S = 1; for Km: read-out: Km; for pH optimum: Table 6
T3 sequence (P15586 37-552): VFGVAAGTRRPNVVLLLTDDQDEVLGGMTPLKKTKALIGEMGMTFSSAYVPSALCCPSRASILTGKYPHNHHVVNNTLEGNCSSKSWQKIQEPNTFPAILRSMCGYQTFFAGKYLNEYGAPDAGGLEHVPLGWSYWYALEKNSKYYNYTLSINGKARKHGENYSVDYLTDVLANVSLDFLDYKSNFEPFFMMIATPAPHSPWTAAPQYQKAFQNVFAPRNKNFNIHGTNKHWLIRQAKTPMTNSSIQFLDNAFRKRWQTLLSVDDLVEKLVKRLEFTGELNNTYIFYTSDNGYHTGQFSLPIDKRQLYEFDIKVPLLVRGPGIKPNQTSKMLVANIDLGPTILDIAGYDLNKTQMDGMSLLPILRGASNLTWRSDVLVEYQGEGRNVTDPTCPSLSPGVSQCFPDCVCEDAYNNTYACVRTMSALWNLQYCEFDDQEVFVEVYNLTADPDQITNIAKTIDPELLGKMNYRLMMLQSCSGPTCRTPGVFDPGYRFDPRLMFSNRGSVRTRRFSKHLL

[2] = 37°, pH: GlcNS-Ido 6.7, GlcNS-Ido2S 5.5, GlcNS-IdOA 5.6, GlcNS-IdoA-GlcNS-IdOA 5.6, GlcNS-IdoA2S-anM6S 3.6, GlcNS6S-Ido 4.2, GlcNS6S-Ido2S 3.8, GlcNS6S-IdOA 4.2
[3] = values marked † (60° C. per footnote), pH: GlcNS 5.6, GalNS 5.6, GlcNS-IdOA 5.4
[4] = at the optimum pH of the substrate analog
[5] = not optimum pH (*): IdoA2S-anM6S at pH 5.0, IdoA2S-anT4S at pH 4.0

Compound: O=C[C@H](O)[C@@H](O)[C@H](O[C@H]1O[C@H](CO)[C@@H](O)[C@H](O)[C@H]1NS(=O)(=O)O)[C@@H](O)C(=O)O [GlcNS-IdOA, O-(α-2-sulphaminoglucosamine)-(1-4)-O-L-iduronic acid]
Relative catalytic efficiency* (heparan-N-sulfatase; 37°, pH (optimum)): 359 | Km (heparan-N-sulfatase; [2]): 35 µM | kcat. (turnover number) (heparan-N-sulfatase; [2]): 9.19 mol/min per mol of enzyme | pH optimum of the enzyme for the substrate (heparan-N-sulfatase): 5.5 | Relative catalytic efficiency* (heparan-N-sulfatase; rows whose other values are marked †): 1477 | Km (heparan-N-sulfatase; [3]): 40.8 µM | kcat. (turnover number) (heparan-N-sulfatase; [3]): 44† mol/min per mol of enzyme

Compound: L-O-(α-iduronic acid 2 sulphate)-(1-4)-D-β-(α-2-sulphaminoglucosamine)-(1-4)-O-(β-D-glucuronic or α-L-iduronic acid)-(1-4) D-O(α-N-acetylglucosamine-(1-3)-D-O-]-gulonic acid [IdoA2S-GlcNS-UA-GlcNAc-GlcOA]
pH optimum (iduronate-2-sulfatase): 5.4 | Km (iduronate-2-sulfatase; [4]): 1.9 µM | kcat. (turnover no.) (iduronate-2-sulfatase; [4]): 756 mol/min per mol of enzyme | Relative catalytic efficiency (iduronate-2-sulfatase; [4]): 47.5

Compound: [Cl-].[Na+] [sodium chloride]
effect of salt on activity of the enzyme against the substrates (iduronate-2-sulfatase): inhibitory

Compound: O=P(O)(O)O [sodium phosphate]
effect of salt on activity of the enzyme against the substrates (iduronate-2-sulfatase): inhibitory

Compound: O=S(=O)([O-])[O-].[Na+].[Na+] [sodium sulfate]
effect of salt on activity of the enzyme against the substrates (iduronate-2-sulfatase): inhibitory

Compound: O=S(=O)(O)N[C@H]1[C@@H](O[C@H]2[C@H](O)[C@@H](OS(=O)(=O)O)C(O)O[C@H]2CO)O[C@H](CO)[C@@H](O)[C@@H]1O (stereo partly drawn) [GlcNS-Ido2S, O-(α-2-sulphaminoglucosamine)-(1-4)-L-6-idose 2-sulphate]
Relative catalytic efficiency* (heparan-N-sulfatase; 37°, pH (optimum)): 36 | Km (heparan-N-sulfatase; [2]): 4.1 µM | kcat. (turnover number) (heparan-N-sulfatase; [2]): 0.11 mol/min per mol of enzyme | pH optimum of the enzyme for the substrate (heparan-N-sulfatase): 5.5

Compound: CC(=O)N[C@H]1[C@@H](O[C@H]2[C@H](O)[C@@H](OS(=O)(=O)O)[C@H](O[C@H]3[C@H](O)[C@@H](CO)O[C@@H]3COS(=O)(=O)O)O[C@H]2C(=O)O)O[C@H](COS(=O)(=O)O)[C@@H](O)[C@@H]1O [GlcNAc6S-IdoA2S-anM6S, O-(α-N-acetylglucosamine 6-sulphate)-(1-4)-L-O-(α-iduronic acid 2-sulphate)-(1-4)-D-O-2,5-anhydro-mannitol 6 sulphate]
kcat. (turnover number) [1]: 7.08 mol/min per mol of enzyme | Relative catalytic efficiency* [1]: 402 | Km [1]: 0.76 µM | pH optimum [1]: 4.3

Compound: O-(α-L-iduronic acid 2-sulphate)-(1-4)-D-β-(α-2-sulphaminoglucosamine 6 sulphate)-(1-4)-L-O-(α-iduronic acid 2-sulphate)-(1-4)-D-O-2,5-anhydro[1-^3H]mannitol 6-sulphate [IdoA2S-GlcNS6S-IdoA2S-anM6S]
pH range of activity (iduronate-2-sulfatase): 5.0-6.5 | pH optimum (iduronate-2-sulfatase): 5.7 | activity as % of maximal activity (iduronate-2-sulfatase): ~90% | Km (iduronate-2-sulfatase; [4]): 1.4 µM | kcat. (turnover no.) (iduronate-2-sulfatase; [4]): 2177 mol/min per mol of enzyme | Relative catalytic efficiency (iduronate-2-sulfatase; [4]): 186.7 | pH of maximal activity (iduronate-2-sulfatase): 5.7

Compound: manganese chloride
effect of salt on activity of the enzyme against the substrates (iduronate-2-sulfatase): no effect or increase the activity

Compound: [Cl-].[Cl-].[Mg+2] [magnesium chloride]
effect of salt on activity of the enzyme against the substrates (iduronate-2-sulfatase): no effect or increase the activity

Compound: N[C@H]1[C@@H](O[C@H]2[C@H](O)[C@@H](OS(=O)(=O)O)[C@H](O[C@H]3[C@H](O)[C@@H](CO)O[C@@H]3COS(=O)(=O)O)O[C@H]2C(=O)O)O[C@H](COS(=O)(=O)O)[C@@H](O)[C@@H]1O [GlcNH6S-IdoA2S-anM6S, O-α-glucosamine 6-sulphate)-(1-4)-L-O-(α-iduronic acid 2-sulphate)-(1-4)-D-β-2,5-anhydro-mannitol 6-sulphate]
kcat. (turnover number) [1]: 0.11 mol/min per mol of enzyme | Relative catalytic efficiency* [1]: 14 | Km [1]: 0.35 µM | pH optimum [1]: 4.3

Results, then the compound that gave them:

Relative catalytic efficiency* (heparan-N-sulfatase; 37°, pH (optimum)): 7.40 | Km (heparan-N-sulfatase; [2]): 7.7 µM | kcat. (turnover number) (heparan-N-sulfatase; [2]): 0.0414 mol/min per mol of enzyme | pH optimum of the enzyme for the substrate (heparan-N-sulfatase): 6.7
Compound: O=C[C@H](O)[C@@H](O)[C@H](O[C@H]1O[C@H](CO)[C@@H](O)[C@H](O)[C@H]1NS(=O)(=O)O)[C@@H](O)CO [GlcNS-Ido, O-(α-2-sulphaminoglucosamine)-(1-4)-L-idose)]

pH range of activity (iduronate-2-sulfatase): 4.2-6.0 | pH optimum (iduronate-2-sulfatase): 5.4 | activity as % of maximal activity (iduronate-2-sulfatase): ~12% | Km (iduronate-2-sulfatase; [4]): 2.5 µM | kcat. (turnover no.) (iduronate-2-sulfatase; [4]): 1925 mol/min per mol of enzyme | Relative catalytic efficiency (iduronate-2-sulfatase; [4]): 91.7 | pH of maximal activity (iduronate-2-sulfatase): 5.1
Compound: L-O-(α-iduronic acid 2 sulphate)-D-β-α-glucosamine 6-sulphate)-(1-4)-L-O-(α-iduronic acid 2-sulphate)-(1-4)-D-O-anhydro-mannitol 6-sulphate [IdoA2S-GlcNH6S-IdoA2S-anM6S]

pH optimum (iduronate-2-sulfatase): 4.0 | Km (iduronate-2-sulfatase; [4]): 4 µM | kcat. (turnover no.) (iduronate-2-sulfatase; [4]): 2114 mol/min per mol of enzyme | Relative catalytic efficiency (iduronate-2-sulfatase; [4]): 63.0 | increase in binding affinity (Km) (iduronate-2-sulfatase; compared with IdoA2S-anM): 5 fold | increase in turnover (Kcat) (iduronate-2-sulfatase; compared with IdoA2S-anM): 13 fold | increase in catalytic activity (iduronate-2-sulfatase; compared with IdoA2S-anM (addition of a 6-sulfate ester group)): 63 fold | Km (iduronate-2-sulfatase; [5]): 2.5 µM | kcat. (turnover no.) (iduronate-2-sulfatase; [5]): 905 mol/min per mol of enzyme | Relative catalytic efficiency (iduronate-2-sulfatase; [5]): 43.1
Compound: O=C(O)[C@@H]1O[C@@H](O[C@H]2[C@H](O)[C@@H](CO)O[C@@H]2COS(=O)(=O)O)[C@H](OS(=O)(=O)O)[C@@H](O)[C@@H]1O [IdoA2S-anM6S, L-O-(α-iduronic acid 2-sulphate)-(1-4)-D-β-2,5-anhydro-mannitol 6-sulphate]

Relative catalytic efficiency* (heparan-N-sulfatase; 37°, pH (optimum)): 6927 | Km (heparan-N-sulfatase; [2]): 10.3 µM | kcat. (turnover number) (heparan-N-sulfatase; [2]): 52 mol/min per mol of enzyme | pH optimum of the enzyme for the substrate (heparan-N-sulfatase): 5.5
Compound: O=C(O)[C@H](O)[C@@H](O[C@H]1O[C@H](CO)[C@@H](O[C@@H]2O[C@@H](C(=O)O)[C@@H](O[C@H]3O[C@H](CO)[C@@H](O)[C@H](O)[C@H]3NS(=O)(=O)O)[C@H](O)[C@H]2O)[C@H](O)[C@H]1NS(=O)(=O)O)[C@H](O)[C@@H](O)CO [GlcNS-IdoA-GlcNS-IdOA, O-(α-2-sulphaminoglucosamine)-(1-4)-L-O-(α-iduronic acid)-(1-4)-O-D-(α-2-sulphaminoglucosamine)-(1-3)-L-idonic acid]

pH optimum (iduronate-2-sulfatase): 5.0 | Km (iduronate-2-sulfatase; [4]): 0.7 µM | kcat. (turnover no.) (iduronate-2-sulfatase; [4]): 507 mol/min per mol of enzyme | Relative catalytic efficiency (iduronate-2-sulfatase; [4]): 86.2 | Km (iduronate-2-sulfatase; [5]): 1.1 µM | kcat. (turnover no.) (iduronate-2-sulfatase; [5]): 270 mol/min per mol of enzyme | Relative catalytic efficiency (iduronate-2-sulfatase; [5]): 29.3
Compound: O-(α-L-idopyranosyluronic acid 2-sulfate)-(1-3)-2,5-anhydro-D-talitol 4-sulfate [IdoA2S-anT4S]

pH optimum (iduronate-2-sulfatase): 5.4 | Km (iduronate-2-sulfatase; [4]): 19.2 µM | kcat. (turnover no.) (iduronate-2-sulfatase; [4]): 161 mol/min per mol of enzyme | Relative catalytic efficiency (iduronate-2-sulfatase; [4]): 1.0
Compound: O=C(O)[C@@H]1O[C@@H](O[C@H]2[C@H](O)[C@@H](CO)O[C@@H]2CO)[C@H](OS(=O)(=O)O)[C@@H](O)[C@@H]1O [IdoA2S-anM, L-O-(α-iduronic acid 2-sulphate-(1-4)-D-β-2,5-anhydro-mannitol]
